Assay results published in patent US10577383B2, “Macrocyclic inhibitors of myeloperoxidase” (BRISTOL-MYERS SQUIBB COMPANY, priority 2016, dated 2020).
Read-outs that look alike come from different tables or passages of the source.

Tests used:
[1] = target: T1, myeloperoxidase (Homo sapiens (Human), UniProt P05164); test: MPO Chlorination Assay (APF Assay); type: biochemical; settings: MPO chlorination activity, 100 mM KPi (pH 7.4), 120 mM NaCl, ten minute preincubation; potency ranges defined in nM
T1 sequence (P05164 49-745): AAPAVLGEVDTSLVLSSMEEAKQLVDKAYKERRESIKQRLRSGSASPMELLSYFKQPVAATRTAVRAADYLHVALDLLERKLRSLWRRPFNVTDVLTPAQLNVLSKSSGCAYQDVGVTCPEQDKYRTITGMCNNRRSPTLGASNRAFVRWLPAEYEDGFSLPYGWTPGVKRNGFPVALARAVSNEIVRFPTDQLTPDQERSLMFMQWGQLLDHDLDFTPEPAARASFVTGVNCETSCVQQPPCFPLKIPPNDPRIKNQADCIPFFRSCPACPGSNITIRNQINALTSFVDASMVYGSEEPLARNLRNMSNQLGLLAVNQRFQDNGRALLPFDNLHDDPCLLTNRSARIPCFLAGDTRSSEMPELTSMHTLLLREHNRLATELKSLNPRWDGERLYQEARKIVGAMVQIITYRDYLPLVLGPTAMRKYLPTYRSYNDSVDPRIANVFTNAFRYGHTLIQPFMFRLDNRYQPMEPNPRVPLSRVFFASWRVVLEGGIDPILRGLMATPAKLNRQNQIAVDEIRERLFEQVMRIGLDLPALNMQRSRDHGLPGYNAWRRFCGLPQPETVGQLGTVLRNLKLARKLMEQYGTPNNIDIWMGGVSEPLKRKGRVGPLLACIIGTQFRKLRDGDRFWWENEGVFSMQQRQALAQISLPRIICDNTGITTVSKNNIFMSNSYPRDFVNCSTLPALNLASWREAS
Description: (§1) [formula] where A=minimal Y value (activity level of inhibited sample), B=maximal Y value (activity level of uninhibited sample), C=Log IC50, D=Hill Slope, x=concentration of inhibitor. MPO Chlorination Assay (APF Assay) MPO chlorination activity was measured in 100 mM KPi (pH 7.4) by utilizing the non-fluorescent reagent Aminophenyl fluorescein (APF, Invitrogen Cat. #A36003). APF is cleaved by (—OCl) to yield the fluorescent compound fluorescein. Reactions were carried out in 50 μL total volume by adding a 25 μL mixture of 200 pM myeloperoxidase and 120 mM NaCl to 100 nL inhibitor in 100% DMSO in a 384 well, non-binding surface clear bottom plate (Corning #3655). Enzyme, inhibitor, and chloride were preincubated for ten minutes at room temperature.
After the ten minute preincubation, 25 μL of an APF mixture containing […], 120 mM NaCl and 10 μM H2O2 was added to the plate using the internal dispensing system of a Hammatsu FDSS 6000. Kinetic determinations were carried out immediately on the FDSS 6000 (3 minute kinetic read, 1 read every second, ex: 485 nm, em: 535 nm). IC50 values for inhibitors were calculated by taking the slope of the linear portion of the kinetic measurement (20 seconds to 80-120 secs).
(§2) IC50 values were calculated by determining the slope of the linear portion of the kinetic trace (180-540 secs), and using that calculated slope to determine % inhibition occurring at each concentration of inhibitor using the following equation:
[formula] where A=minimal Y value (activity level of inhibited sample), B=maximal Y value (activity level of uninhibited sample), C=Log IC50, D=Hill Slope, x=concentration of inhibitor. EPX Bromination Assay

[2] = target: T1, myeloperoxidase; test: MPO Peroxidation Assay (Amplex Red Assay); type: biochemical; settings: MPO peroxidation activity, 100 mM KPi (pH 7.4), ten minute preincubation; potency ranges defined in nM
Description: MPO Peroxidation Assay (Amplex Red Assay)
MPO peroxidation activity was measured in 100 mM KPi (pH 7.4) by utilizing the non-fluorescent reagent Amplex Red (Invitrogen Cat. #A12222) which can be oxidized to the highly fluorescent resorufin. Amplex Red is oxidized by the peroxidase action of MPO to resorufin. Reactions were carried out in 50 μL total volume by adding a 25 μL mixture of 200 pM myeloperoxidase and 40 nM H2O2 (Sigma #349887) to 100 nL inhibitor in 100% DMSO in a 384 well Perkin Elmer Optiplate. Enzyme and compound were preincubated for ten minutes at room temperature.
After the ten minute preincubation, 25 μL of an Amplex Red mixture containing 200 μM Amplex Red and 10 mM H2O2 was added to the plate. Kinetic determinations were carried out immediately on a Perkin Elmer Envision (15 minute kinetic read, Ex: 535 nm, Em: 590 nm).
as §2, §1

SMILES | IC50 [1] [nM] | IC50 [2] [nM] | also measured
CC(C)(C)OC(=O)N(C/C=C(\I)c1cc(NC(c2ccccc2)(c2ccccc2)c2ccccc2)nc2c1nnn2C(c1ccccc1)(c1ccccc1)c1ccccc1)[C@H]1C[C@H](Cc2ccccc2)[C@H](Oc2cccc(Cn3cc(B4OC(C)(C)C(C)(C)O4)cn3)c2)C1 | – | – | ring closure, isolated yield (the molecule shown is the open-chain precursor, cc_pd bond, 15-membered ring, PdCl2(dppf)-CH2Cl2/K2CO3, dioxane/H2O, 1.0 mM, 85.0 °C): 45%
CC(C)(C)OC(=O)N(C/C=C(\I)c1cc(NC(c2ccccc2)(c2ccccc2)c2ccccc2)nc2c1nnn2C(c1ccccc1)(c1ccccc1)c1ccccc1)CC(=O)N(CCc1ccccc1)Cc1cccc(Cn2cc(B3OC(C)(C)C(C)(C)O3)cn2)c1 | – | – | ring closure, isolated yield (the molecule shown is the open-chain precursor, cc_pd bond, 15-membered ring, PdCl2(dppf)-CH2Cl2/K2CO3, dioxane/H2O, 1.07 mM, 85.0 °C): 42%
CC(C)(C)OC(=O)N1CC=C(c2cc(N)nc3[nH]nnc23)c2cnn(c2)Cc2cccc(c2)O[C@@H]2CC13CCC2(c1ccccc1)CC3 | – | – | ring closure, isolated yield (from CC(C)(C)OC(=O)N(C/C=C(\c1cnn(Cc2cccc(O)c2)c1)c1cc(N)nc2[nH]nnc12)C12CCC(c3ccccc3)(CC1)[C@@H](O)C2, ether bond, 15-membered ring, cyanomethylenetributylphosphorane, toluene, 5.0 mM, 100.0 °C): 85%
c1ccc(C(Nc2cc(C3CCNCc4cccc(c4)COc4cccc(c4)Cn4cc3cn4)c3nnn(C(c4ccccc4)(c4ccccc4)c4ccccc4)c3n2)(c2ccccc2)c2ccccc2)cc1 (stereo not drawn) | – | – | ring closure, isolated yield (from OCc1cccc(CNCCC(c2cnn(Cc3cccc(O)c3)c2)c2cc(NC(c3ccccc3)(c3ccccc3)c3ccccc3)nc3c2nnn3C(c2ccccc2)(c2ccccc2)c2ccccc2)c1, ether bond, 17-membered ring, PPh3/DIAD, THF): 94%
Oc1cccc(Cn2cc(C(CCNCc3cccc(I)c3)c3cc(NC(c4ccccc4)(c4ccccc4)c4ccccc4)nc4c3nnn4C(c3ccccc3)(c3ccccc3)c3ccccc3)cn2)c1 (stereo not drawn) | – | – | ring closure, isolated yield (the molecule shown is the open-chain precursor, ether bond, 16-membered ring, CuI/1,10-phenanthroline/Cs2CO3, toluene, 4.8 mM, 150.0 °C): 29%
Nc1cc(C2CCNCc3cccc(c3)Oc3cccc(c3)Cn3cc2cn3)c2nn[nH]c2n1 (stereo not drawn) [Example 1, 7-{17-oxa-3,4,10-triazatetracyclo[16.3.1.1^3,^6.1^12,^1^6]tetracosa-1(22),4,6(24),12,14,16(23),18,20-octaen-7-yl}-3H-[1,2,3]triazolo[4,5-b]pyridin-5-amine] | 1 to 100 | 101 to 999 | –
Nc1cc(C2CCN[C@H](CO)Cc3cccc(c3)Oc3cccc(c3)Cn3cc2cn3)c2nn[nH]c2n1 (stereo partly drawn) [Example 11, [(11S)-7-{5-Amino-3H-[1,2,3]triazolo[4,5-b]pyridin-7-yl}-18-oxa-3,4,10-triazatetracyclo[17.3.1.1^3,^6.1^13,^1^7]pentacosa-1(23),4,6(25),13,15,17(24),19,21-octaen-11-yl]methanol] | 1 to 100 | 101 to 999 | –
Nc1cc(C2CCNCCc3cccc(c3)Oc3cccc(c3)Cn3cc2cn3)c2nn[nH]c2n1 (stereo not drawn) [Example 3, 7-{18-oxa-3,4,10-triazatetracyclo[17.3.1.1^3,^6.1^13,^1^7]pentacosa-1(23),4,6(25),13,15,17(24),19,21-octaen-7-yl}-3H-[1,2,3]triazolo[4,5-b]pyridin-5-amine] | 1 to 100 | 1 to 100 | –
Nc1cc(C2CCNCCc3cccc(c3)OCc3cccc(c3)Cn3cc2cn3)c2nn[nH]c2n1 (stereo not drawn) [Example 16, 7-{18-Oxa-3,4,10-triazatetracyclo[18.3.1.1^3,^6.1^13,^1^7]hexacosa-1(24),4,6(26),13(25),14,16,20,22-octaen-7-yl}-3H-[1,2,3]triazolo[4,5-b]pyridin-5-amine] | 1 to 100 | 101 to 999 | –
CC1(C)OB(c2cnn(Cc3cccc(Oc4cccc(CCNC/C=C(\I)c5cc(NC(c6ccccc6)(c6ccccc6)c6ccccc6)nc6c5nnn6C(c5ccccc5)(c5ccccc5)c5ccccc5)c4)c3)c2)OC1(C)C | – | – | ring closure, isolated yield (the molecule shown is the open-chain precursor, cc_pd bond, 17-membered ring, PdCl2(dppf)-CH2Cl2/K2CO3, dioxane/H2O, 2.45 mM, 85.0 °C): 35.1%
Nc1cc(C2CCNCC3(CC3)COc3cccc(c3)Cn3cc2cn3)c2nn[nH]c2n1 (stereo not drawn) [Example 19, 7-{14′-Oxa-3′,4′,10′-triazaspiro[cyclopropane-1,12′-tricyclo[13.3.1.1^3,^6]icosane]-1′(19′),4′,6′(20′),15′,17′-pentaen-7′-yl}-3H-[1,2,3]triazolo[4,5-b]pyridin-5-amine] | 1 to 100 | 101 to 999 | –
Nc1cc(C2CCNCCc3cccc(c3)Oc3cccc(c3)Cn3cc2cn3)c2nn[nH]c2n1 (single isomer, unassigned) [Example 4, 7-{18-oxa-3,4,10-triazatetracyclo[17.3.1.1^3,^6.1^13,^1^7]pentacosa-1(23),4,6(25),13,15,17(24),19,21-octaen-7-yl}-3H-[1,2,3]triazolo[4,5-b]pyridin-5-amine] | 101 to 999 | 101 to 999 | –
CC(C)(C)OC(=O)N(C/C=C(\I)c1cc(NC(c2ccccc2)(c2ccccc2)c2ccccc2)nc2c1nnn2C(c1ccccc1)(c1ccccc1)c1ccccc1)CCCOc1cccc(Cn2cc(B3OC(C)(C)C(C)(C)O3)cn2)c1 | – | – | ring closure, isolated yield (the molecule shown is the open-chain precursor, cc_pd bond, 15-membered ring, PdCl2(dppf)-CH2Cl2/K2CO3, dioxane/H2O, 1.04 mM, 85.0 °C): 39.1%
C[C@H]1Cc2cccc(c2)Oc2cccc(c2)Cn2cc(cn2)C(c2cc(N)nc3[nH]nnc23)CCN1 (stereo partly drawn) [Example 7, 7-[(11S)-11-Methyl-18-oxa-3,4,10-triazatetracyclo[17.3.1.1^3,^6.1^13,^1^7]pentacosa-1(23),4,6(25),13,15,17(24),19,21-octaen-7-yl]-3H-[1,2,3]triazolo[4,5-b]pyridin-5-amine] | 1 to 100 | 1 to 100 | –
C[C@H]1Oc2cccc(c2)Cn2cc(cn2)C(c2cc(N)nc3[nH]nnc23)CCNCc2cccc1c2 (stereo partly drawn) [Example 10, 7-[(17R)-17-Methyl-18-oxa-3,4,10-triazatetracyclo[17.3.1.1^3,^6.1^12,^16]pentacosa-1(23),4,6(25),12,14,16(24),19,21-octaen-7-yl]-3H-[1,2,3]triazolo[4,5-b]pyridin-5-amine] | 1 to 100 | 101 to 999 | –
Nc1cc(C2CCNCc3cc(F)cc(c3)OCc3cccc(c3)Cn3cc2cn3)c2nn[nH]c2n1 (stereo not drawn) [Example 12, 7-{14-Fluoro-17-oxa-3,4,10-triazatetracyclo[17.3.1.1^3,^6.1^12,^1^6]pentacosa-1(23),4,6(25),12(24),13,15,19,21-octaen-7-yl}-3H-[1,2,3]triazolo[4,5-b]pyridin-5-amine] | 1 to 100 | 1 to 100 | –
Nc1cc(C2CCNCc3cc(cc(OC(F)(F)F)c3)COc3cccc(c3)Cn3cc2cn3)c2nn[nH]c2n1 (stereo not drawn) [Example 23, 7-[14-(Trifluoromethoxy)-18-oxa-3,4,10-triazatetracyclo[17.3.1.1^3,^6.1^12,^1^6]pentacosa-1(23),4,6(25),12,14,16(24),19,21-octaen-7-yl]-3H-[1,2,3]triazolo[4,5-b]pyridin-5-amine] | 101 to 999 | 1000 to 10000 | –
NC(=O)CN1CCc2cccc(c2)Oc2cccc(c2)Cn2cc(cn2)C(c2cc(N)nc3[nH]nnc23)CC1 (stereo not drawn) [Example 35, 2-(7-{15-Amino-3H-[1,2,3]triazolo[4,5-b]pyridin-7-yl}-18-oxa-3,4,10-triazatetracyclo[17.3.1.1^3,^6.1^13,^17]pentacosa-1(23),4,6(25),13,15,17(24),19,21-octaen-10-yl)acetamide] | 1000 to 10000 | 1000 to 10000 | –
Nc1cc(C2CCNC34CCC(c5ccccc5)(CC3)[C@@H](C4)Oc3cccc(c3)Cn3cc2cn3)c2nn[nH]c2n1 (stereo partly drawn) [Example 28, 7-[(17R)-18-Phenyl-16-oxa-2,8,9-triazapentacyclo[16.2.2.1^1,^1^7.1^6,^9.1^11,^1^5]pentacosa-6(25),7,11(24),12,14-pentaen-5-yl]-3H-[1,2,3]triazolo[4,5-b]pyridin-5-amine] | 1 to 100 | 1000 to 10000 | –
Nc1cc([C@H]2CCN[C@H]3C[C@H](Cc4ccccc4)[C@@H](C3)Oc3cccc(c3)Cn3cc2cn3)c2nn[nH]c2n1 [Example 26, 7-[(3R,4S,6S,10R)-4-Benzyl-2-oxa-7,13,14-triazatetracyclo[14.3.1.1^3,^6.1^11,^1^4]docosa-1(19),11(21),12,16(20),17-pentaen-10-yl]-3H-[1,2,3]triazolo[4,5-b]pyridin-5-amine] | 1 to 100 | 1 to 100 | –
